The source of these data is patent publication US10766857B2, “Compound having BLT inhibitory activity and composition, for preventing or treating inflammatory diseases, comprising same as active ingredient” (DONGGUK UNIVERSITY INDUSTRY-ACADEMIC COOPERATION FOUNDATION, priority 2015, dated 2020).

Assay [1] has as its target T1, BLT2 (Homo sapiens, UniProt Q9NPC1).
T1 construct: HA; expressed in transfected cells
T1 sequence (Q9NPC1 with tags, fused parts or gaps): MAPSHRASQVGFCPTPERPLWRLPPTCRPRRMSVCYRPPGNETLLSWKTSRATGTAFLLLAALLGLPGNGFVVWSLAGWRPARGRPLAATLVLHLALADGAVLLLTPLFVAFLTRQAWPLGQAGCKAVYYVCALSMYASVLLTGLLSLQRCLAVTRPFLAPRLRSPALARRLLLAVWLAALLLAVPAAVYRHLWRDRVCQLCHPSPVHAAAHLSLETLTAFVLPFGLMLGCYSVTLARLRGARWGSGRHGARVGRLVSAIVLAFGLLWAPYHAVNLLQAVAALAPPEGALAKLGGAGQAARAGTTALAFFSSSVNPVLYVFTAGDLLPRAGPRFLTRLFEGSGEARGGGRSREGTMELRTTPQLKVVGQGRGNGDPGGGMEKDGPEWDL
Briefly: [3H]LTB4 and BLT2 binding inhibition, CHO-BLT2 cell membrane proteins. To be noted: [3H]LTB4 5 nM.
Method: The inhibition of LTB4 and BLT2 binding (ligand binding affinity) was analyzed using radioactive tritium (^3H)-labeled LTB4 ([^3H]LTB4, ARC; specific activity 160.0 Ci/mmol). After 2×10^6 of CHO-BLT2 cells were plated into a 100-mm culture dish and cultured for 48 hours, an experimental method was carried out as follows: Collected cells were treated using a homogenizer a total of five times for 1 minute each to separate proteins of the cell membrane. Afterward, the cells were subjected to centrifugation at 4° C. and 45,000 rpm for 40 minutes to only collect the proteins of the cell membrane, and thereby, a protein concentration of 40 μg/45 μL was quantified. When a BLT2-containing cell membrane proteins which were quantified in the same manner was treated with the same amount of [^3H]LTB4 (5 nM), and then a different concentration (10^−9, 10^−8, 10^−7, 10^−6 or 10^−5 M) of a compound, a degree of inhibiting the tritium-labeled LTB4 and BLT2 binding was measured using a Hidex 300sL liquid scintillation counter.

The target in assay [2] is T2, BLT2-expressing cells (CHO-BLT2 cells) (Homo sapiens, UniProt Q9NPC1).
T2 construct: HA; expressed in transfected cells
T2 sequence (Q9NPC1 with tags, fused parts or gaps): T1 sequence (Q9NPC1 with tags, fused parts or gaps)
The assay can be described thus: MTT cell growth of LTB4-stimulated BLT2-expressing cells. It counts as cell-based. Particulars: pre-treated at 10 μM, LTB4 300 nM. On the procedure:
Cell viability according to treatment of the compounds prepared in the examples were measured by a 3-(4,5-dimethylthiazol-2-yl)-2,5-diphenyltetrazolium bromide (MTT) method.
More specifically, 1×10^4 each of the BLT2-nonexpressing cells (CHO-pcDNA3.1 cells) and BLT2-expressing cells (CHO-BLT2 cells), which were prepared in Experimental Example 1, were dispensed in a […], and cultured for 24 hours. Afterward, the culture medium was removed, a serum-free RPMI medium was added, and after two hours, the cells were pre-treated with each of the compound prepared in one of the examples (10 μM), 10 μM DMSO (compound solvent) as a control, and 10 μM 1-[5-ethyl-2-hydroxy-4-[[6-methyl-6-(1H-tetrazol-5-yl)heptyl]oxy]phenyl]-ethanone (LY255283; Cayman) as a positive control for 1 hour. Subsequently, after treatment of LTB4 (300 nM), the cells were cultured for 24 hours. 20 μL of an MTT solution (5 mg/mL, Sigma-Aldrich) was added to each well, the cells were cultured in a humid CO2 incubator at 37° C. for 4 hours, a supernatant was removed, and 200 μL of DMSO was added to each well to dissolve insoluble violet formazan crystals. Absorbance was measured using a microplate reader (Molecular Devices, Sunnyvale, Calif.) at 550 nm, and the measurement was repeated three times.

For another assay, the target named is T3, BLT1 (Homo sapiens, UniProt Q15722).
T3 construct: expressed in transfected cells; host or cells: CHO cells stably expressing BLT1 (CHO-BLT1)
T3 sequence (Q15722 whole entry, species assumed): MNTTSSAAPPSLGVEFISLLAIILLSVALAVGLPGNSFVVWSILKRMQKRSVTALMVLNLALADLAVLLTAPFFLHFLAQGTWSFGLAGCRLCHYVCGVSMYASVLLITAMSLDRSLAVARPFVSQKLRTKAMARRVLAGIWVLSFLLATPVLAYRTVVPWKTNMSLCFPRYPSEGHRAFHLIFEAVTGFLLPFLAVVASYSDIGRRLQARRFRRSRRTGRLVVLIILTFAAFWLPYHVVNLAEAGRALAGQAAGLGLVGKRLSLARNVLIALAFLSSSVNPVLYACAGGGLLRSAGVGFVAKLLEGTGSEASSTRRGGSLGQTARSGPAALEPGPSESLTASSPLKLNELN
Briefly: LTB4-induced chemotactic motility, Transwell, CHO-BLT1 cells. It is filed as cell-based. To be noted: LTB4 10 nM, serum-free, read-out: IC50 of chemotactic motility inhibition. On the procedure:
(§1) Chemotactic motility was analyzed using a Transwell chamber including a polycarbonate filter (8-μm pore size, Corning Costar) with a 6.5-mm diameter. Specifically, the lower surface of the filter was coated with 10 μg/mL fibronectin in a serum-free RPMI 1640 medium at 37° C. for 1 hour. The experiment was performed by placing the filter dried and coated with RPMI 1640 media containing various amounts of LTB4 in the lower wells of the Transwell chamber, and loading CHO cells stably expressing BLT1 and BLT2 into the upper wells containing serum-free RPMI 1640 media finally at 2×10^4 cells/100 μL. To evaluate the effect of inhibitors, the cells were pre-treated with each inhibitor for 30 minutes before dispensing. After the cells were cultured at 37° C. in 5% CO2 for 3 hours, the filters were fixed with methanol for 3 minutes, and stained with hematoxylin and eosin for 10 minutes. In the experiment, the cells were BLT2-expressing cells (CHO-BLT2 cells) and BLT1-expressing cells (CHO-BLT1 cells), and LY255283 and U75302 were used as positive controls for each type of the cells, and BLT2 ligand LTB4, (300 nM), BLT1 ligand LTB4 (10 nM), and lysophosphatidic acid (LPA; 100 nM) were used as comparative controls. The chemotactic motility was quantitatively analyzed by counting the cells on the lower side of the filter under an optical microscope (magnification, 200×). For each analysis, 6 fields were subjected to counting, each sample was analyzed twice, and the analysis was repeated three times.

Assay [3] has as its system asthma-induced mice (OVA+LPS). Briefly: OVA+LPS-induced severe asthma mice: AHR and cell influx. It counts as in vivo. Particulars: for AHR reduced: airway constrictor 50 mg/ml. From the text:
Mast cells play a pivotal role in the initial reaction to asthma, and when an allergen enters the body from the outside through an airway, the mast cells are activated, thereby secreting various cytokines (interleukin-4 and interleukin-13). Due to the cytokines, the influx of inflammatory cells, the generation of mucus and the airway contraction occur. The inventors used 7-week-old (18 to 20 g) female BALB/c mice provided by Orient (Seoungnam, Korea) for the experiment to confirm the antiasthma effect, and then the asthma was induced in the mice. On the first and 14th days, 2.5 mg of an adjuvant, aluminum hydroxide gel (alum; Pierce, Rockford, Ill.) was included in […] of ovalbumin (OVA) to intraperitoneally sensitize female […] mice. On the 21st, 22nd and 23rd days of two initial sensitizations, 1% OVA was sprayed into the mice using an ultrasonic nebulizer. The compound of the present invention (LMT-696; 5 mg/kg), LY255283 (5 mg/kg, Cayman) or DMSO was intraperitoneally injected at the 1 hour before the 1% OVA spraying. On the 24th day of the initial sensitization, airway hyperresponsiveness (AHR) was detected, and on the 25th day, the mice were dissected to observe asthma phenotypes, for example, inflammatory cytokine IL-4 expression and the influx of inflammatory cells (neutrophils). In the case of lipopolysaccharide (LPS)-induced severe asthma animal models, on the 0, 1st, 2nd and 7th days, 75 μg of OVA and 1 mg of LPS were intranasally injected into Balb/c mice for sensitization. On the 14th, 15th, 21th and 22th days, 50 μg of OVA was injected into the nose for a challenge. The compound of the present invention (LMT-1013) (1, 3, 10 or 30 mg/kg), montelukast (10 mg/kg, DRS) or a control buffer (10% DMA, 5% Tween 80, 85% brine) were treated one hour before the challenge by injecting 50 μg of OVA into the nose. On the 23rd day of the initial sensitization, AHR was detected, and on the 24th day, the mice were dissected to observe a severe asthma phenotype, for example, the influx of the inflammatory cells (neutrophils). In addition, the AHR detection was performed after an airway constrictor, methacholine (6.25 to 50 mg/ml depending on conditions), was administered to the mice. The administration of the airway constrictor was performed by spraying through an inlet of the chamber using an ultrasonic nebulizer for 3 minutes. The AHR was analyzed using an enhanced pause as the indicator of the asthma phenomenon. Bronchoalveolar lavage fluid cell counts were quantified by counting cells under an optical microscope (magnification, 200×). In each analysis, 4 fields were subjected to counting, each sample was analyzed twice, and the analysis was repeated three times.

For assay [4], the target named is T1, BLT2. Briefly: LTB4-induced chemotactic motility, Transwell, CHO-BLT2 cells. It is filed as cell-based. Particulars: LTB4 300 nM, serum-free, read-out: IC50 of chemotactic motility inhibition. How it is done:
as §1

On to `CCCCC(=O)N(CC#Cc1ccc(C(=O)O)cc1)c1ccccc1` [LMT-1013, 4-(3-(N-phenylpentaneamido)prop-1-yn-1-yl)benzoic acid], for which the 50% inhibitory concentration (IC50) on BLT2 [1] is 30.7 nM; at BLT1 it was at least 10000 nM; on BLT2 [4], 62.4 nM. For the same molecule, the “cell growth compared with the control DMSO” value in assay [2] is recorded as 96.3%. Further, the neutrophils reduced turned out to be 51.6% in assay [3] (1 mg/kg, FIGS. 13A-13C); 42.2% in assay [3] (1 mg/kg, FIGS. 14A-14B); 48.8% in assay [3] (3 mg/kg, FIGS. 14A-14B); 90.3% in assay [3] (10 mg/kg, FIGS. 13A-13C); 71.8% in assay [3] (10 mg/kg, FIGS. 14A-14B); 88.3% in assay [3] (30 mg/kg, FIGS. 14A-14B). Also, the AHR reduced in assay [3] (1 mg/kg) was found to be 48.6%; in assay [3] (3 mg/kg), 52.9%; in assay [3] (10 mg/kg) it was 83.2%; in assay [3] (30 mg/kg), 87.3%. Moreover, the “total cells entering the abdominal cavity of the mice” value in assay [3] (1, 3, 10 and 30 mg/kg, FIGS. 14A-14B) is on record as “reduced”; in assay [3] (1 and 10 mg/kg, FIGS. 13A-13C) it was “reduced”.

A word on the IC50: it is the concentration that gives 50% inhibition.
